Measurements reported in PMC1968247 (British Journal of Cancer, 1993).
Like-named read-outs stand apart in the source and are kept apart here.

Columns and labels:
MAC 26 tumours = conditions: for Survivors: MAC 26 bearers
Experimental: (§1) Br. J. Cancer (1993), 67, 441 446 t? […] Bibby Clinical Oncology Unit, University of Bradford, West Yorkshire, BD7 JDP, UK. […] In vivo anti-tumour activity was examined against three transplantable adenocarcinomas of the mouse colon and in vivo bone marrow toxicity was assessed using a spleen colony forming unit assay. The pharmacokinetic behaviour of the drug in vivo and drug stability in vitro was analysed by gas chromatography with electron capture detection. […] Clinical responses to cytotoxic agents have been largely restricted to the haematological malignancies while the majority of human solid tumours have remained refractory to chemotherapy (Marsoni et al., 1987). […] However, their clinical usefulness has been limited by non-selective host toxicity, particularly myelosuppres- sion. The chloroethylnitrosoureas decompose spontaneously in aqueous solution to generate reactive intermediates that are capable of alkylating and carbamoylating nucleophilic targets (Cheng et al., 1972). Alkylation reactions consist of chloroethylations and hydroxyethylations of DNA (Tong et al., 1982). Chloroethylation of 06-guanine with subsequent cross-link formation is considered to be the most important cytotoxic reaction (Lown et al., 1978) while hydroxyethyla- tion reactions are thought to be responsible for their mutagenic and carcinogenic effects (Pelfrene et al., 1976; Swenson et al., 1979). […] In the search for other types of compound that would chloroethylate DNA, a series of 2-haloethylsulphonates was synthesised (Shealy et al., 1983). […] Recently, the NCI has introduced a new disease-orientated screening programme based on the assessment of the in vitro cytotoxicity of a panel of cell lines representing the common clinical forms of human cancers using a colorimetric assay (Boyd, 1989). […] One reason for this discrepancy is that the in vitro tests ignore the potential role played by the pharmacokinetic behaviour and bioavailability of a drug in determining tumour responses in vivo. […] It has been used extensively as part of the pre-clinical evaluation of new anti-cancer agents within the Screening and Pharmacology Group of the EORTC (Bibby et al., 1988b). The feasibility of performing minimal toxicity studies in conjunction with anti-tumour studies has been described (Bibby et al., 1988b). […] Correspondence: A.M. Matthew. Received 6 December 1991; and in revised form 13 October 1992. Br. J. Cancer (1993), 67, 441-446 '?" Macmillan Press Ltd., 1993 442 A.M. MATIHEW et al. ethylating agents with improved therapeutic indices. The assessment of stem cell survival has been recommended to study irreversible cytotoxic bone marrow injury (Schofield, 1986) and this can be performed readily in mice using a spleen colony forming unit assay. […] In vitro activity was assessed against a panel of established murine and human tumour cell lines while in vivo anti-tumour responses were evaluated against an ascitic tumour, MAC 15A, and two solid subcutaneous (sc) tumours, MAC 13 and MAC 26. MAC 13 is relatively nitrosourea-sensitive due to a low level of the repair enzyme 06-alkylguanine-DNA alkyltransferase while MAC 26 is relatively nitrosourea-resistant due to a high repair enzyme level (Lunn et al., 1989). In vivo bone marrow toxicity and pharmacokinetic studies and in vitro drug stability studies were performed in conjunction with the anti-tumour studies. […] Chlorozotocin was dissolved in 10% dimethylsulphoxide (DMSO)/arachis oil. Drug solutions were prepared at an appropriate concentration for the desired in vivo dose to be administered in 0.1 ml per 10 g body weight by intra- peritoneal (ip) or intravenous (iv) injection and for the desired final concentration in vitro to be achieved upon a 1 in 10 dilution. […] Chemosensitivity testing In vitro chemosensitivity was assessed using a modified micro-tetrazolium (MTT) assay (Twenty- man & Luscombe, 1987).

bone marrow = conditions: 24 h
Experimental: as §1

MAC 13 tumours = assay: Anti-tumour activity against MAC 13 (tumour weight); format: in vivo, NMRI mice; conditions: 30 mg kg-1 ip
Experimental: as §1

MAC 15A ascites tumour = assay: Anti-tumour activity against MAC 15A (median survival time); format: in vivo, NMRI mice; conditions: 30 mg kg-1 ip
Experimental: as §1

[1] = Maximum tolerated dose, full dose range to the point of toxicity; conditions: ip, mice
Experimental: Br. J. Cancer (1993), 67, 441 446 t? […] Bibby Clinical Oncology Unit, University of Bradford, West Yorkshire, BD7 JDP, UK. […] In vivo anti-tumour activity was examined against three transplantable adenocarcinomas of the mouse colon and in vivo bone marrow toxicity was assessed using a spleen colony forming unit assay. The pharmacokinetic behaviour of the drug in vivo and drug stability in vitro was analysed by gas chromatography with electron capture detection. […] Clinical responses to cytotoxic agents have been largely restricted to the haematological malignancies while the majority of human solid tumours have remained refractory to chemotherapy (Marsoni et al., 1987). […] However, their clinical usefulness has been limited by non-selective host toxicity, particularly myelosuppres- sion. The chloroethylnitrosoureas decompose spontaneously in aqueous solution to generate reactive intermediates that are capable of alkylating and carbamoylating nucleophilic targets (Cheng et al., 1972). Alkylation reactions consist of chloroethylations and hydroxyethylations of DNA (Tong et al., 1982). Chloroethylation of 06-guanine with subsequent cross-link formation is considered to be the most important cytotoxic reaction (Lown et al., 1978) while hydroxyethyla- tion reactions are thought to be responsible for their mutagenic and carcinogenic effects (Pelfrene et al., 1976; Swenson et al., 1979). […] The assessment of stem cell survival has been recommended to study irreversible cytotoxic bone marrow injury (Schofield, 1986) and this can be performed readily in mice using a spleen colony forming unit assay. […] In vitro activity was assessed against a panel of established murine and human tumour cell lines while in vivo anti-tumour responses were evaluated against an ascitic tumour, MAC 15A, and two solid subcutaneous (sc) tumours, MAC 13 and MAC 26. […] Chemosensitivity testing In vitro chemosensitivity was assessed using a modified micro-tetrazolium (MTT) assay (Twenty- man & Luscombe, 1987).

Compound: CN(C)S(=O)(=O)CCNC(=O)N(CCCl)N=O [TCNU, 1-(2-chloroethyl)-3-[2-(dimethylaminosulphonyl)ethyl]-I -nitro-sourea]
- Tumour growth delay (MAC 26 tumours; MAC 26, 30 mg kg-1 ip): 11.6 days
- Survivors (MAC 26 tumours; 30 mg kg-1 ip): 10/10
- Survivors (MAC 26 tumours; 50 mg kg-1 ip): 0/5
- Survival fraction (bone marrow; 5 mg kg-1 ip): 0.61
- Survival fraction (bone marrow; 10 mg kg-1 ip): 0.20
- Survival fraction (bone marrow; 30 mg kg-1 ip): 0
- No. colonies observed (bone marrow; 30 mg kg-1 ip, mean, SD, n = 6): 0
- % Tumour weight inhibition (MAC 13 tumours): 91.3%
- T/C% (MAC 15A ascites tumour): 200%
- Maximum tolerated dose [1]: 30 mg kg-'
